Each block holds one compound with its values, some of them ahead of it.
How the values were obtained:
[1] = animal study; cited from earlier work
[2] = tested on: Rat Pleurisy Macrophage Model; conditions: compared with (R)-(-)-isomer; cited from earlier work
[3] = Hygroscopicity by dynamic vapor sorption analysis; assay type: physicochemical; conditions: for RH at which moisture is adsorbed (adsorption curve) / moisture content: 25° C.; for RH at which moisture is adsorbed (adsorption curve): 5% RH increase per step from 0 to 95% RH; for moisture content: at 95% RH; for hygroscopicity compared with the amorphous form: overall conclusion
Protocol: Type A crystal, type B crystal, and an amorphous form of (S)-(+)-hydroxychloroquine sulfate were subjected to dynamic vapor sorption analysis to compare their hygroscopicity using a VTI-SA vapor sorption analyzer from TA Instruments (_New Castle, Del., USA). Each was exposed to a series of relative-humidity (“RH”)-change steps at 25° C., i.e, a 5% RH increase per step from 0 to 95% RH and then a 5% RH decrease per step from 95% to 5% RH.

[4] = Stability of crystal stirred in solvents, solid analysed by XRPD and chiral HPLC; assay type: physicochemical; conditions: room temperature, 1 day
Protocol: Further, the stability of type A crystal was determined by stirring the crystal (10 mg) in each of nine solvent (0.5 mL) at room temperature for 1 day. For the nine solvents, see Table 6 below. The resulting solid was analyzed by XRPD and chiral HPLC containing a chiral column of DAICEL CHIRALCEL OD-H, 250×4.6 mm, 5 μm.

[5] = Thermal stability by Variable Temperature PXRD under nitrogen; assay type: physicochemical
Protocol: The stability of type A crystal was also determined by heating the crystal to 30° C., 80° C., 130° C., 160° C., 180° C., and 210° C. under nitrogen using the Variable Temperature PXRD technique. […] Only when the temperature reached 80° C., 160° C. and 210° C., it was converted to type B, C, and D crystals, respectively.

[6] = Solubility test in 16 solvents by stepwise solvent addition; assay type: physicochemical

Compound: CCN(CCO)CCC[C@H](C)Nc1ccnc2cc(Cl)ccc12.O=S(=O)(O)O (single isomer, unassigned) [(S)-(+)-isomer]
accumulation in ocular tissues compared with the (R)-(-)-isomer [1]: much less
more efficacious than the (R)-(-)-isomer [2]: 70%

Compound: CCN(CCO)CCC[C@H](C)Nc1ccnc2cc(Cl)ccc12.O=S(=O)(O)O [amorphous form, (S)-(+)-hydroxychloroquine sulfate, reference compound]
RH at which moisture is adsorbed (adsorption curve) [3]: 25 % RH
moisture content [3]: 51%
susceptibility to environment (desorption curve) ([3]; compared with type A and type B crystals): much more susceptible to an environment

Compound: CCN(CCO)CCC[C@H](C)Nc1ccnc2cc(Cl)ccc12.O=S(=O)(O)O [type A crystal, (S)-(+)-hydroxychloroquine sulfate]
RH at which moisture is adsorbed (adsorption curve) [3]: > 85 % RH
moisture content [3]: 19%
hygroscopicity compared with the amorphous form [3]: less hygroscopic
Crystal change ([4]; Acetone): Not found
ee of resulting solid ([4]; Acetone): 95.4%
Crystal change ([4]; Acetonitrile): Not found
ee of resulting solid ([4]; Acetonitrile): 95.6%
Crystal change ([4]; Dichloromethane): Not found
ee of resulting solid ([4]; Dichloromethane): 95.8%
Crystal change ([4]; Ethanol): Not found
ee of resulting solid ([4]; Ethanol): 96.7%
Crystal change ([4]; Ethanol/water (9/1)): Not found
ee of resulting solid ([4]; Ethanol/water (9/1), starting ee 96.2%): 99.2%
Crystal change ([4]; Ethyl acetate): Not found
ee of resulting solid ([4]; Ethyl acetate): 88.8%
Crystal change ([4]; Isopropyl acetate): Not found
ee of resulting solid ([4]; Isopropyl acetate): 95.5%
Crystal change ([4]; Methanol): Clear solution
Crystal change ([4]; Tetrahydrofuran): Not found
ee of resulting solid ([4]; Tetrahydrofuran): 95.3%
stability in the test solvents (summary) ([4]; nine solvents): unexpectedly stable in all test solvents except in methanol
stability at room temperature ([5]; Variable Temperature PXRD under nitrogen): highly stable
temperature at which converted to type B crystal ([5]; heating under nitrogen): 80 °C
temperature at which converted to type C crystal ([5]; heating under nitrogen): 160 °C
temperature at which converted to type D crystal ([5]; heating under nitrogen): 210 °C

More lines, now with the values ahead:

RH at which moisture is adsorbed (adsorption curve) [3]: higher than 60 % RH
moisture content [3]: 30%
hygroscopicity compared with the amorphous form [3]: less hygroscopic
Compound: CCN(CCO)CCC[C@H](C)Nc1ccnc2cc(Cl)ccc12.O=S(=O)(O)O [type B crystal, (S)-(+)-hydroxychloroquine sulfate]

Solubility ([6]; 2-Methyl-tetrahydrofuran): >38 mg/mL
Solubility ([6]; Acetone): >38 mg/mL
Solubility ([6]; Acetonitrile): 6.7 to 20 mg/mL
Solubility ([6]; Dichloromethane): >40 mg/mL
Solubility ([6]; Dioxane): >40 mg/mL
Solubility ([6]; Ethanol): >42 mg/mL
Solubility ([6]; Ethyl acetate): 6.7 to 20 mg/mL
Solubility ([6]; Isopropanol): >38 mg/mL
Solubility ([6]; Isopropyl acetate): 6.7 to 20 mg/mL
Solubility ([6]; Methanol): >40 mg/mL
Solubility ([6]; Methyl isobutyl ketone): >42 mg/mL
Solubility ([6]; Methyl tert-butyl ether): <2.1 mg/mL
Solubility ([6]; Tetrahydrofuran): >38 mg/mL
Solubility ([6]; Toluene): <2.0 mg/mL
Solubility ([6]; Water): <1.9 mg/mL
Solubility ([6]; n-Heptane): <2.1 mg/mL
Compound: (±)-hydroxychloroquine [salt-free form of (±)-hydroxychloroquine]

Source: patent publication US11578041B2, “Crystals of hydroxychloroquine sulfate” (Genovate Biotechnology Co. Ltd., priority 2020, dated 2023)
